Experimental data published in publication PMC11003488 (Journal of Enzyme Inhibition and Medicinal Chemistry, 2023).

What was measured:
Format in all cases: cell-based
Conditions in all cases: Homo sapiens
MDA-MB-435 = assay: NCI-60 SRB growth inhibition, one-dose and five-dose
BT-549 = assay: as above
UACC-62 = assay: as above
SW-620 = assay: as above
SK-MEL-5 = assay: as above
SF-539 = assay: as above
PC-3 = assay: as above
COLO 205 = assay: as above
DU-145 = assay: as above
HOP-92 = assay: as above
SNB-75 = assay: as above
HOP-62 = assay: as above
SF-295 = assay: as above
OVCAR-4 = assay: as above
SK-MEL-28 = assay: as above
SF-268 = assay: as above
RXF 393 = assay: as above
OVCAR-5 = assay: as above
U251 = assay: as above
HS 578 T = assay: as above
786-0 = assay: as above
TK-10 = assay: as above
IGROV1 = assay: as above
HL-60(TB) = assay: cells
SR = assay: NCI-60 SRB growth inhibition, one-dose and five-dose
NCI-H460 = assay: as above
M14 = assay: as above
NCI-H226 = assay: as above
A498 = assay: as above
NCI-H322M = assay: as above
LOX IMVI = assay: as above
SK-OV-3 = assay: as above
NCI-H522 = assay: as above
MDA-MB-468 = assay: as above
K-562 = assay: as above
SNB-19 = assay: as above
NCI/ADR-RES = assay: as above
MALME-3M = assay: as above
HT29 = assay: as above
MOLT-4 = assay: as above
A549/ATCC = assay: as above
CCRF-CEM = assay: as above
[1] = read-out: percent growth inhibition

## COc1ccc(CNc2cccc(C(=O)/C=C/c3cccnc3)c2)cc1OC [Compound 5c, (E)-1–(3-((3,4-dimethoxybenzyl)amino)phenyl)-3-(pyridin-3-yl)prop-2-en-1-one]
MDA-MB-435; MDA-MB-435
  GI50: 2.46 µM
MDA-MB-435; MDA-MB-435, read-out: percent growth inhibition
  inhibition at 10 µM: 84.7%
BT-549; BT-549
  GI50: 2.57 µM
BT-549; BT-549, read-out: percent growth inhibition
  inhibition at 10 µM: 135%
UACC-62; UACC-62
  GI50: 10.5 µM
UACC-62; UACC-62, read-out: percent growth inhibition
  inhibition at 10 µM: 61.1%
SW-620; SW-620
  GI50: 2.31 µM
SW-620; SW-620, read-out: percent growth inhibition
  inhibition at 10 µM: 177%
SK-MEL-5; SK-MEL-5
  GI50: 5.86 µM
SK-MEL-5; SK-MEL-5, read-out: percent growth inhibition
  inhibition at 10 µM: 103%
SF-539; SF-539
  GI50: 12.4 µM
SF-539; SF-539, read-out: percent growth inhibition
  inhibition at 10 µM: 162%
PC-3; PC-3
  GI50: 8 µM
PC-3; PC-3, read-out: percent growth inhibition
  inhibition at 10 µM: 89%
COLO 205; COLO 205
  GI50: 16.5 µM
COLO 205; COLO 205, read-out: percent growth inhibition
  inhibition at 10 µM: 84.7%
DU-145; DU-145
  GI50: 12.4 µM
DU-145; DU-145, read-out: percent growth inhibition
  inhibition at 10 µM: 60.5%
HOP-92; HOP-92
  GI50: 11 µM
HOP-92; HOP-92, read-out: percent growth inhibition
  inhibition at 10 µM: 36.8%
SNB-75; SNB-75
  GI50: 12.9 µM
SNB-75; SNB-75, read-out: percent growth inhibition
  inhibition at 10 µM: 34.2%
HOP-62; HOP-62
  GI50: 12.2 µM
HOP-62; HOP-62, read-out: percent growth inhibition
  inhibition at 10 µM: 30%
SF-295; SF-295
  GI50: 10.4 µM
SF-295; SF-295, read-out: percent growth inhibition
  inhibition at 10 µM: 53.7%
OVCAR-4; OVCAR-4
  GI50: 9.31 µM
OVCAR-4; OVCAR-4, read-out: percent growth inhibition
  inhibition at 10 µM: 80.1%
SK-MEL-28; SK-MEL-28
  GI50: 5.22 µM
SK-MEL-28; SK-MEL-28, read-out: percent growth inhibition
  inhibition at 10 µM: 98.4%
SF-268; SF-268
  GI50: 5.86 µM
SF-268; SF-268, read-out: percent growth inhibition
  inhibition at 10 µM: 40.4%
RXF 393; RXF 393
  GI50: 10.8 µM
RXF 393; RXF 393, read-out: percent growth inhibition
  inhibition at 10 µM: 64.9%
OVCAR-5; OVCAR-5
  GI50: 13.9 µM
OVCAR-5; OVCAR-5, read-out: percent growth inhibition
  inhibition at 10 µM: 68.4%
U251; U-251
  GI50: 3.62 µM
U251; U-251, read-out: percent growth inhibition
  inhibition at 10 µM: 124%
HS 578 T
  GI50: 14.3 µM
HS 578 T; [1]
  inhibition at 10 µM: 98.3%
786-0; 786-0
  GI50: 3.68 µM
786-0; 786-0, read-out: percent growth inhibition
  inhibition at 10 µM: 133%
TK-10; TK-10
  GI50: 8.14 µM
TK-10; TK-10, read-out: percent growth inhibition
  inhibition at 10 µM: 23.9%
IGROV1; IGROV-1
  GI50: 11 µM
IGROV1; IGROV-1, read-out: percent growth inhibition
  inhibition at 10 µM: 84.3%
HL-60(TB); HL-60
  GI50: 2.78 µM
HL-60(TB); HL-60, read-out: percent growth inhibition
  inhibition at 10 µM: 59.6%
SR
  GI50: 2.48 µM
SR; [1]
  inhibition at 10 µM: 92%
NCI-H460; NCI-H460
  GI50: 5.22 µM
NCI-H460; NCI-H460, read-out: percent growth inhibition
  inhibition at 10 µM: 69%
M14; M14
  GI50: 3.82 µM
M14; M14, read-out: percent growth inhibition
  inhibition at 10 µM: 146%
NCI-H226; NCI-H226
  GI50: 14.7 µM
NCI-H226; NCI-H226, read-out: percent growth inhibition
  inhibition at 10 µM: 19.7%
A498; A498
  GI50: 13.6 µM
A498; A498, read-out: percent growth inhibition
  inhibition at 10 µM: 20%
NCI-H322M
  GI50: 14.8 µM
NCI-H322M; [1]
  inhibition at 10 µM: 14.2%
LOX IMVI
  GI50: 1.76 µM
LOX IMVI; [1]
  inhibition at 10 µM: 192%
SK-OV-3; SK-OV-3
  GI50: 16.6 µM
SK-OV-3; SK-OV-3, read-out: percent growth inhibition
  inhibition at 10 µM: 41.8%
NCI-H522; NCI-H522
  GI50: 13.6 µM
NCI-H522; NCI-H522, read-out: percent growth inhibition
  inhibition at 10 µM: 138%
MDA-MB-468; MDA-MB-468
  GI50: 4.06 µM
MDA-MB-468; MDA-MB-468, read-out: percent growth inhibition
  inhibition at 10 µM: 157%
K-562; K562
  GI50: 2.71 µM
K-562; K562, read-out: percent growth inhibition
  inhibition at 10 µM: 89%
SNB-19; SNB-19
  GI50: 9.49 µM
SNB-19; SNB-19, read-out: percent growth inhibition
  inhibition at 10 µM: 41.3%
NCI/ADR-RES
  GI50: 2.96 µM
MALME-3M
  GI50: 12.5 µM
MALME-3M; [1]
  inhibition at 10 µM: 101%
HT29; HT-29
  GI50: 4.38 µM
HT29; HT-29, read-out: percent growth inhibition
  inhibition at 10 µM: 178%
MOLT-4; MOLT-4
  GI50: 2.95 µM
MOLT-4; MOLT-4, read-out: percent growth inhibition
  inhibition at 10 µM: 38.9%
A549/ATCC; A549
  GI50: 17.2 µM
A549/ATCC; A549, read-out: percent growth inhibition
  inhibition at 10 µM: 17.6%
CCRF-CEM
  GI50: 2.55 µM
CCRF-CEM; [1]
  inhibition at 10 µM: 87.1%
